Numbered stars: 1 amine (or outer) side, 2 acyl side, 3 side chain; on linkers, the order of the positions; unused ones are H or OH. Bridge positions count the residues as written; N and C are the ends. Square brackets hold non-standard residues; d marks the D form. Peptide text beside a SMILES is read from it. Trp(βS-Me,7-OMe) = COc1cccc2c([C@H](C)[C@H](N)C(=O)O)c[nH]c12; Trp(7-Cl) = N[C@@H](Cc1c[nH]c2c(Cl)cccc12)C(=O)O; Ala(pyrimidin-5-yl) = N[C@@H](Cc1cncnc1)C(=O)O; Phe(3-COOH) = N[C@@H](Cc1cccc(C(=O)O)c1)C(=O)O; Phe(4-CONH2) = NC(=O)c1ccc(C[C@H](N)C(=O)O)cc1; Phe(4-COOH) = N[C@@H](Cc1ccc(C(=O)O)cc1)C(=O)O; Trp(7-aza) = N[C@@H](Cc1c[nH]c2ncccc12)C(=O)O; X18 = O=C([C@@H]1C=C[C@H](N[*:1])C1)[*:2]; X1 = O=C([C@@H]1CC[C@H](N[*:1])C1)[*:2]; Val(3-OH) = CC(C)(O)[C@H](N)C(=O)O; Pip(4-aza) = O=C(O)[C@@H]1CNCCN1; 4Pal = N[C@@H](Cc1ccncc1)C(=O)O; NMeE = CN[C@@H](CCC(=O)O)C(=O)O; hSer = N[C@@H](CCO)C(=O)O; αMeS = C[C@](N)(CO)C(=O)O; Nle = CCCC[C@H](N)C(=O)O; Sar = CNCC(=O)O
Experiments:
[1] = target: T1, human soluble TNFR1 (sTNFR1) (Homo sapiens, UniProt P19438); assay: Human sTNFR1-peptide displacement assay (LanthaScreen Eu TR-FRET binding assay)
T1 construct: made in house; host or cells: Sf21 (baculovirus)
T1 sequence (P19438 with tags, fused parts or gaps): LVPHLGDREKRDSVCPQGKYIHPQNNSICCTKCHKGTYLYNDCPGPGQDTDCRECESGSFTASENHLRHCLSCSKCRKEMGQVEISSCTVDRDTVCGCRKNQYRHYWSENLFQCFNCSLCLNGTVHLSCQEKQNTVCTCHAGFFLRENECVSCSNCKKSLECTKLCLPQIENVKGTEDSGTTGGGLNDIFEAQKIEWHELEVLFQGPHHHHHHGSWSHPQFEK
In short: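 Readout is the 665/615 nm TR-FRET ratio (Eu anti-His donor, streptavidin-Alexa647 acceptor), normalized to DMSO and saturating displacer, fit by Morrison-based five-parameter logistic for Kd^app. His-tagged sTNFR1 (1-211) prebound to 100 nM biotinylated peptide SEQ ID NO.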

[2] = target: T2, TNFα-induced NF-κB signal transduction pathway (TNFR1 signaling) in THP-1 cells (Homo sapiens, UniProt P19438); assay: THP-1 Lucia NF-κB reporter cell assay, inhibition of TNFα-induced NF-κB signaling; type: cell-based; conditions: THP-1 NF-κB Lucia reporter cells, 10 ng/mL TNFα, 16-18 h, secreted luciferase; read-out: THP-1 IC50
T2 sequence (P19438 30-455): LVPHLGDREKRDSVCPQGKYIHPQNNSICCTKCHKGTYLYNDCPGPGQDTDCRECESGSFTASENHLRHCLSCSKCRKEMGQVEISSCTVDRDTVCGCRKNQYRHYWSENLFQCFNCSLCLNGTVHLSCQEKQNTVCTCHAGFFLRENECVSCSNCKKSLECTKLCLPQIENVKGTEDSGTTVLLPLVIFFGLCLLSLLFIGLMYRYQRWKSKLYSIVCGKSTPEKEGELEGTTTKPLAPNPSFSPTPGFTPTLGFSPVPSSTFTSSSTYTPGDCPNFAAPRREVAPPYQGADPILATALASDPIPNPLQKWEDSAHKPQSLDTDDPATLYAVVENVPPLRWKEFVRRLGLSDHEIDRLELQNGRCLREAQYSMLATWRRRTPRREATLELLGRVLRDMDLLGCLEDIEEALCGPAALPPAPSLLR
In short: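 Macrocyclic peptides were preincubated 1 h at 37 °C with THP-1 NF-κB-Lucia reporter cells (20,000 cells/well) in antibiotic-free RPMI 1640/10% FBS, then stimulated with 10 ng/mL human TNFα overnight (16-18 h). Secreted luciferase in supernatant was read by luminescence; IC50 from 4-parameter logistic fits.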

Compound: CCCC[C@@H]1NC(=O)CSC[C@@H](C(N)=O)NC(=O)[C@H]([C@@H](C)c2c[nH]c3c(OC)cccc23)NC(=O)CN(C)C(=O)[C@H](Cc2ccc(O)cc2)NC(=O)[C@H](Cc2ccc(C(=O)O)cc2)NC(=O)[C@](C)(CO)NC(=O)[C@H](Cc2c[nH]c3c(Cl)cccc23)NC(=O)[C@H](Cc2ccncc2)NC(=O)[C@H](CC(N)=O)NC(=O)[C@H](CCC(=O)O)N(C)C(=O)[C@H](Cc2c[nH]c3ncccc23)NC(=O)[C@H](C(C)(C)O)NC(=O)[C@H](Cc2cncnc2)NC1=O [SEQ ID NO. 177] ({CH2CO}-[Nle][Ala(pyrimidin-5-yl)][Val(3-OH)][Trp(7-aza)][NMeE]N[4Pal][Trp(7-Cl)][αMeS][Phe(4-COOH)]Y[Sar][Trp(βS-Me,7-OMe)]C-NH2; thioether N-14)
- Kd [1]: 0.54 nM
- IC50 [2]: 3.3 nM

Compound: CCCC[C@@H]1NC(=O)[C@@H]2CC[C@@H](C2)NC(=O)[C@H]([C@@H](C)c2c[nH]c3c(OC)cccc23)NC(=O)CN(C)C(=O)[C@H](Cc2c[nH]cn2)NC(=O)[C@H](Cc2ccc(C(=O)O)cc2)NC(=O)[C@](C)(CO)NC(=O)[C@H](Cc2c[nH]c3c(Cl)cccc23)NC(=O)[C@H](Cc2ccncc2)NC(=O)[C@H](CC(N)=O)NC(=O)[C@H](CCC(=O)O)N(C)C(=O)[C@H](Cc2c[nH]c3ccccc23)NC(=O)[C@@H]2CNCCN2C(=O)[C@H](Cc2ccncc2)NC1=O [SEQ ID NO. 178] (cyclo([4Pal][Trp(7-Cl)][αMeS][Phe(4-COOH)]H[Sar][Trp(βS-Me,7-OMe)][X1][Nle][4Pal][Pip(4-aza)]W[NMeE]N))
- Kd [1]: 0.29 nM
- IC50 [2]: 3.3 nM

Compound: CCCC[C@@H]1NC(=O)[C@@H]2CC[C@@H](C2)NC(=O)[C@H]([C@@H](C)c2c[nH]c3c(OC)cccc23)NC(=O)CN(C)C(=O)[C@H](Cc2ccc(O)cc2)NC(=O)[C@H](Cc2ccc(C(=O)O)cc2)NC(=O)[C@](C)(CO)NC(=O)[C@H](Cc2c[nH]c3c(Cl)cccc23)NC(=O)[C@H](Cc2ccncc2)NC(=O)[C@H](CCOC)NC(=O)[C@H](CCC(=O)O)N(C)C(=O)[C@H](Cc2c[nH]c3ccccc23)NC(=O)[C@@H]2CNCCN2C(=O)[C@H](Cc2ccncc2)NC1=O [SEQ ID NO. 181] (cyclo([4Pal][Trp(7-Cl)][αMeS][Phe(4-COOH)]Y[Sar][Trp(βS-Me,7-OMe)][X1][Nle][4Pal][Pip(4-aza)]W[NMeE][hSer](Me)))
- Kd [1]: 0.34 nM
- IC50 [2]: 1.2 nM

Compound: CCCC[C@@H]1NC(=O)[C@@H]2C=C[C@@H](C2)NC(=O)[C@H]([C@@H](C)c2c[nH]c3c(OC)cccc23)NC(=O)CN(C)C(=O)[C@H](Cc2ccc(O)cc2)NC(=O)[C@H](Cc2ccc(C(=O)O)cc2)NC(=O)[C@](C)(CO)NC(=O)[C@H](Cc2c[nH]c3c(Cl)cccc23)NC(=O)[C@H](Cc2ccncc2)NC(=O)[C@H](CC(N)=O)NC(=O)[C@H](CCC(=O)O)N(C)C(=O)[C@H](Cc2c[nH]c3ccccc23)NC(=O)[C@@H]2CNCCN2C(=O)[C@H](Cc2ccncc2)NC1=O [SEQ ID NO. 182] (cyclo([4Pal][Trp(7-Cl)][αMeS][Phe(4-COOH)]Y[Sar][Trp(βS-Me,7-OMe)][X18][Nle][4Pal][Pip(4-aza)]W[NMeE]N))
- Kd [1]: 0.2 nM
- IC50 [2]: 0.9 nM

Compound: CCCC[C@@H]1NC(=O)CSC[C@@H](C(N)=O)NC(=O)[C@H]([C@@H](C)c2c[nH]c3c(OC)cccc23)NC(=O)CN(C)C(=O)[C@H](Cc2cccc(C(=O)O)c2)NC(=O)[C@H](Cc2ccc(C(N)=O)cc2)NC(=O)[C@](C)(CO)NC(=O)[C@H](Cc2c[nH]c3c(Cl)cccc23)NC(=O)[C@H](Cc2ccc(C(N)=O)cc2)NC(=O)[C@H](CC(N)=O)NC(=O)[C@H](CCC(=O)O)N(C)C(=O)[C@H](Cc2c[nH]c3ccccc23)NC(=O)[C@@H]2CNCCN2C(=O)[C@H](Cc2ccncc2)NC1=O [SEQ ID NO. 184] ({CH2CO}-[Nle][4Pal][Pip(4-aza)]W[NMeE]N[Phe(4-CONH2)][Trp(7-Cl)][αMeS][Phe(4-CONH2)][Phe(3-COOH)][Sar][Trp(βS-Me,7-OMe)]C-NH2; thioether N-14)
- IC50 [1]: 0.5 nM
- IC50 [2]: 1.7 nM

From patent publication US20240287138A1, “CYCLIC PEPTIDES FOR INHIBITING TNF RECEPTOR 1 ACTIVITY” (Merck Sharp & Dohme LLC, priority 2023, published 2024)
